Measurements reported in patent publication US10702526B2, “Inhibitors of immune checkpoint modulators and related methods” (eFFECTOR Therapeutics, Inc., priority 2015, dated 2020).
Entries after “also recorded” stand apart in the source; their conditions may differ.

Legend:
[1] = tested on: IL-2 production in primary T cells; experiment: IL-2 ELISA on supernatants of activated primary T cells; assay type: cell-based, human; conditions: T cells activated with anti-CD3/anti-CD28 beads
Procedure: (§1) About 3×10^5 T cells were activated using anti-CD3/anti-CD28 magnetic beads as per manufacturer's protocol (Dynabeads®, Invitrogen, Carlsbad, Calif.). Briefly, a ratio of fresh primary T cells to beads used to activate the T cells was 1:1 (for every 80,000 T cells, 2 μl of beads were added). Test cells were treated simultaneously with various concentrations of MNK-specific inhibitor Compound 107 (0.01, 0.1, 1, 3 and 10 μM). After 48 hours, culture supernatants were harvested and examined via sandwich ELISA for the presence of IL-2 using human IL-2 ELISA DuoSet® (R&D Systems, Minneapolis, Minn.). […] After fixation, cells were washed twice with flow buffer and re-suspended in flow buffer and assessed for fluorescence using BD Accuri C6 cytometer. Data were analyzed using the C6 cytometer software (BD Biosciences, San Jose, Calif.).

phospho-eIF4E = experiment: eIF4E phosphorylation in TMD8 cells (Western blot); assay type: cell-based, human
Procedure: The ability of MNK-specific inhibitor compounds to regulate the level of HLA class II proteins was evaluated in a diffuse large B-cell lymphoma (DLBCL) cell line, TMD8. Briefly, human DLBCL cell line TMD8 (ATCC), was cultured in RPMI media supplemented with penicillin G (100 U/ml), streptomycin (100 μg/ml), and 10% FBS in a humidified atmosphere of 5% CO2 maintained at 37° C. About 2-4×10^6 TMD8 cells were seeded in 10 cm plates 24 hours prior to drug treatment. The following day, cells were treated with either vehicle control (DMSO) or Compound 107 at the indicated concentration (FIG. 7). Cells were harvested 48 hours post-treatment.
Treated cells were harvested, washed with PBS and lysed in 1×RIPA buffer (Thermo Fisher) for 15 minutes at 4° C. Lysates were clarified by centrifugation for 15 min at 14,000×rpm and supernatants were collected. Protein concentration in the soluble fraction was determined using the BCA protein assay (Thermo Scientific). Proteins were resolved on 4-20% Bis-Tris gradient polyacrylamide gel (Invitrogen) and transferred to nitrocellulose membrane. […] The blots were washed, scanned, and specific proteins detected using the LI-COR Odyssey infrared imager. […]

Jurkat cells = experiment: Jurkat T cell viability (fixable dead cell stain); assay type: cell-based
Procedure: To examine the effect of MNK-specific inhibitors on PD-1 expression, Jurkat cells (Clone E6.1, ATCC, transformed T cells) were used, which express PD-1 when activated through T cell receptor (TCR) signaling. Briefly, Jurkat cells were grown in 1×RPMI with 1× Pen/Strep, and 10% FBS, then about 3×10^6 Jurkat cells were activated in presence of 1 μg/mL PHA (Sigma) and 50 ng/mL PMA (Sigma). Test Cells were treated simultaneously with various concentrations of MNK-specific inhibitor Compound 107 (0, 0.01, 0.1, 1, 3 and 10 μM). After 48 hours, culture supernatants were harvested and examined via sandwich ELISA for the presence of IL-2 using human IL-2 ELISA DuoSet® (R&D Systems, Minneapolis, Minn.). The level of PD-1 on Jurkat cells was examined by incubating cells with fixable dead cell stain (1:20,000; BD Biosciences, San Jose, Calif.) for 15 minutes at 4° C., washed twice with flow staining buffer (1×PBS, 4% FBS and 1 mM EDTA), incubated with human FcR block, then contacted with allophycocyanin (APC) conjugated anti-PD-1 antibody (Biolegend, San Diego, Calif.) for 30 minutes at 4° C., washed two times with flow buffer, and finally cells were fixed with fixation buffer for 20 minutes at 4° C. After fixation, cells were washed twice with flow buffer and re-suspended in flow buffer and assessed for fluorescence using BD Accuri C6 flow cytometer. Data were analyzed using the C6 cytometer software (BD Biosciences, San Jose, Calif.).

[2] = tested on: PD-1 expression on human Pan-T cells; experiment: PD-1 expression on primary T cells activated with anti-CD3/anti-CD28 beads (flow cytometry); assay type: cell-based
Procedure: as §1

For `Cc1cc(Nc2cc(N)ncn2)c(=O)n2c1C(=O)NC21CCCCC1.Cl` [Compound 107], the IL-2 production [1] was “did not detectably alter IL-2 production”, the “phosphorylation of eIF4E” value (phospho-eIF4E) was “potently inhibited” and the “Cell Death” value (Jurkat cells; Jurkat T cell assay, MNK-specific inhibitors) was “− (− = 0-10%)”. For the same compound, the “cell viability (percentage of dead cells)” value (Jurkat cells; Jurkat cells with PHA and PMA) was “no effect on cell viability; also recorded: unaffected”, the “maximum inhibition of PD-1 expression” value ([2]; T cells activated with anti-CD3/anti-CD28 beads, 10 μM, 48 hours) was 76% and the PD-1 expression ([2]; primary T cells, anti-CD3/anti-CD28 beads, 0.01-10 μM) was “reduced in a dose dependent manner”.
